Assay results from ChEMBL document CHEMBL4325924, “Discovery of Orally Bioavailable and Liver-Targeted Hypoxia-Inducible Factor Prolyl Hydroxylase (HIF-PHD) Inhibitors for the Treatment of Anemia” (ACS Med Chem Lett, 2018).

Columns and labels:
[1] = Plasma clearance in Wistar Han rat at 1 mg/kg, iv or 2 mg/kg, po administered via gavage by LC-MS/MS analysis; assay type: ADME, organism-based
[2] = Volume of distribution in Wistar Han rat at 1 mg/kg, iv or 2 mg/kg, po administered via gavage by LC-MS/MS analysis; assay type: ADME, organism-based; conditions: in vivo
[3] = Half life in Wistar Han rat at 1 mg/kg, iv or 2 mg/kg, po administered via gavage by LC-MS/MS analysis; assay type: ADME, organism-based; conditions: in vivo
[4] = Oral bioavailability in Wistar Han rat at 2 mg/kg administered via gavage by LC-MS/MS analysis; assay type: ADME, organism-based; conditions: in vivo
[5] = Plasma clearance in Beagle dog at 0.175 mg/kg, iv or 1 mg/kg, po administered via gavage by LC-MS/MS analysis; assay type: ADME, organism-based, Canis lupus familiaris
[6] = Volume of distribution in Beagle dog at 0.175 mg/kg, iv or 1 mg/kg, po administered via gavage by LC-MS/MS analysis; assay type: ADME, organism-based, Canis lupus familiaris; conditions: in vivo
[7] = Half life in Beagle dog at 0.175 mg/kg, iv or 1 mg/kg, po administered via gavage by LC-MS/MS analysis; assay type: ADME, organism-based, Canis lupus familiaris; conditions: in vivo
[8] = Oral bioavailability in Beagle dog at 1 mg/kg administered via gavage by LC-MS/MS analysis; assay type: ADME, organism-based, Canis lupus familiaris; conditions: in vivo

What does the source list for `O=C(O)CNC(=O)c1c(O)c2c(n(Cc3ccc(C(F)(F)F)cc3)c1=O)COC2`?
clearance [1]: 11 mL/min/kg; Vd [2]: 3.1 L/kg; half-life [3]: 438 min; bioavailability [4]: 39%; clearance [5]: 17 mL/min/kg; Vd [6]: 5.6 L/kg; half-life [7]: 372 min; bioavailability [8]: 25%
